In ChEMBL document CHEMBL1127872, “Discovery and development of aryl-fused imidazole-based angiotensin II antagonists” (Bioorg Med Chem Lett, 1994):

Assays:
[1] = species: Oryctolagus cuniculus; assay: Potency of the Angiotensin II-induced contraction of rabbit aortic strips; format: functional, Aorta; details: for Kb: Oryctolagus cuniculus, Aorta, read-out: pA2 (converted)
[2] = target: T1, Type-1 angiotensin II receptor (Bos taurus, UniProt P25104); assay: Inhibition of [125I][Ile5]-AII binding to bovine adrenal cortex membrane Angiotensin II receptor type 1; format: tissue-based
T1 sequence (P25104 whole entry): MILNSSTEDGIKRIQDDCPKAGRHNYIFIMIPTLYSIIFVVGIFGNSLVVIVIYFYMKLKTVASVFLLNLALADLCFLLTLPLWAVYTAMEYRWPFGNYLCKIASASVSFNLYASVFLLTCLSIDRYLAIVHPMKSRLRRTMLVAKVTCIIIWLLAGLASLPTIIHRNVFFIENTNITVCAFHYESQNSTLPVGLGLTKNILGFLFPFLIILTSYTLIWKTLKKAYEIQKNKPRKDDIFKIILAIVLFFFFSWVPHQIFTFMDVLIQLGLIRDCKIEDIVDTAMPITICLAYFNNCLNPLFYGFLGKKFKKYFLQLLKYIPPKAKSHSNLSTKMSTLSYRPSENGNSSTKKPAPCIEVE

[3] = target: Angiotensin II receptor (Rattus norvegicus) (UniProt P29089+P25095+P35351); assay: In vivo antagonism of Angiotensin II induced dose-pressor response in male rats.; format: functional, organism-based

Row | IC50 [2] [nM] | ED2 [3] [mg/kg] | Compound | Kb [1] [nM] | pA2 [1]
1 | – | 0.25 | Cc1ccnc2c1nc(C1CCC1)n2Cc1ccc(-c2ccccc2C(=O)O)cc1 | 5.01 | –
2 | – | 0.55 | CCCCc1nc2c(C)ccnc2n1Cc1cc(Cl)c(O)c(Cl)c1 | 10 | –
3 | 3200 | 6.5 | CCCCc1nc2ccccc2n1Cc1cc(Cl)c(O)c(Cl)c1 | 63.1 | –
4 | – | 1.9 | CCCCc1nc2cccnc2n1Cc1cc(Cl)c(O)c(Cl)c1 | 63.1 | –
5 | – | 0.35 | C/C=C/c1nc2c(C)ccnc2n1Cc1ccc(-c2ccccc2C(=O)O)cc1 | 5.01 | –
6 | 81000 | – | CCCCc1nc2ccccc2n1CCc1cc(I)c(O)c(I)c1 | – | –
7 | 2500 | – | CCCCc1nc2ccccc2n1Cc1cc(Br)c(O)c(Br)c1 | – | –
8 | – | 0.84 | Cc1ccnc2c1nc(C(C)C)n2Cc1ccc(-c2ccccc2C(=O)O)cc1 | 31.6 | –
9 | 1500 | – | CCCCc1nc2ccccc2n1Cc1cc(I)c(O)c(I)c1 | – | –
10 | – | 0.16 | CCCc1nc2c(C)ccnc2n1Cc1ccc(-c2ccccc2C(=O)O)cc1 | 3.16 | 8.5
11 | – | 0.48 | Oc1c(Cl)cc(Cn2c(C3CC3)nc3cccnc32)cc1Cl | 20 | –
12 | 33000 | – | CCCCc1nc2ccccc2n1Cc1ccc(I)c(O)c1I | – | –
13 | – | 0.41 | CCSc1nc2c(C)ccnc2n1Cc1ccc(-c2ccccc2C(=O)O)cc1 | 5.01 | –
14 | 20000 | – | CCCCc1nc2ccccc2n1Cc1ccc(O)c(C)c1 | – | –
15 | 1600 | – | CCCCc1nc2ccccc2n1Cc1cc([N+](=O)[O-])c(O)c([N+](=O)[O-])c1 | – | –
16 | – | 0.075 | Cc1ccnc2c1nc(C1CC1)n2Cc1ccc(-c2ccccc2C(=O)O)cc1 | 2 | –
17 | – | 0.28 | CCCCc1nc(Cl)c(CO)n1Cc1ccc(-c2ccccc2-c2nnn[nH]2)cc1 [LOSARTAN] | 2.51 | –
18 | 2200 | – | CCCCc1nc2ccccc2n1Cc1cc(C)c(O)c([N+](=O)[O-])c1 | – | –
19 | – | 0.97 | CSc1nc2c(C)ccnc2n1Cc1ccc(-c2ccccc2C(=O)O)cc1 | 10 | –
20 | – | 0.29 | CCc1nc2c(C)ccnc2n1Cc1ccc(-c2ccccc2C(=O)O)cc1 | 1.26 | –
21 | – | 0.15 | CCCc1nc2c(C)ccnc2n1Cc1cc(Cl)c(O)c(Cl)c1 | 1.26 | –

Continued, compound first:

Row | Compound | IC50 [2] [nM] | ED2 [3] [mg/kg] | Kb [1] [nM] | pA2 [1]
22 | CCCc1nc2ncccc2n1Cc1cc(Cl)c(O)c(Cl)c1 | – | – | 794 | –
23 | CCCCc1nc2ccccc2n1Cc1cc(C)c(O)c(I)c1 | 2200 | – | – | –
24 | CCCCc1nc2ncccc2n1Cc1cc(Cl)c(O)c(Cl)c1 | – | – | 398 | –
25 | CCCCc1nc2ccccc2n1Cc1cc(C(C)(C)C)c(O)c(C(C)(C)C)c1 | > 100000 | – | – | –
26 | CCCc1nc2c(Cl)ccnc2n1Cc1ccc(-c2ccccc2C(=O)O)cc1 | – | 0.66 | 7.94 | –
27 | Cc1ccnc2c1nc(CCCO)n2Cc1ccc(-c2ccccc2C(=O)O)cc1 | – | – | 501 | –
28 | CCCCc1nc2c(C)ccnc2n1Cc1ccc(-c2ccccc2C(=O)O)cc1 | – | 0.45 | 7.94 | –
29 | O=C(O)c1ccccc1-c1ccc(Cn2c(C3CC3)nc3c(C(=O)O)ccnc32)cc1 | – | – | 25.1 | –
30 | Oc1c(Cl)cc(Cn2c(C3CC3)nc3ncccc32)cc1Cl | – | – | 631 | –
31 | COCc1nc2c(C)ccnc2n1Cc1ccc(-c2ccccc2C(=O)O)cc1 | – | 0.65 | 79.4 | –
32 | Cc1ccnc2c1nc(C)n2Cc1ccc(-c2ccccc2C(=O)O)cc1 | – | 1.3 | 50.1 | –
33 | CCCCc1nc2ccccc2n1Cc1ccc(O)cc1 | 8500 | – | – | –
34 | O=C(O)c1ccccc1-c1ccc(Cn2c(C3CC3)nc3c(CO)ccnc32)cc1 | – | – | 10 | –
35 | CCCc1nc2cccnc2n1Cc1cc(Cl)c(O)c(Cl)c1 | – | 0.65 | 31.6 | –
36 | CCCCc1nc2c(C)cccc2n1Cc1cc(Cl)c(O)c(Cl)c1 | – | 1.3 | 20 | –
37 | CCCc1nc2cccnc2n1Cc1ccc(-c2ccccc2C(=O)O)cc1 | – | – | 39.8 | –
38 | Cc1ccnc2c1nc(C1CC1)n2Cc1cc(Cl)c(O)c(Cl)c1 | – | 0.079 | 2 | –
39 | CCCCc1nc2ccccc2n1Cc1cc(C)c(O)c(C)c1 | 4700 | – | – | –
